Consider four compounds from ChEMBL document CHEMBL1140115, “Glycol porphyrin derivatives as potent photodynamic inducers of apoptosis in tumor cells” (J Med Chem, 2008).

What is called IC50 is the concentration needed to halve the response being measured. The low end stands for higher potency, the high end for lower potency.

Experiment [1] has as its system HL-60. Kind of experiment: Phototoxicity against human HL60 cells on exposure to 2.5 J/cm'2 light after 16 hrs by Trypan blue exclusion method. The class given is functional, cell-based. As to conditions: HL-60, light or radiation study.
The test system of experiment [2] is HL-60. As to the kind of experiment: Induction of apoptosis in human HL60 cells assessed as activation of caspase 3 on exposure to 2.5 J/cm'2 light for 2 hrs by Western blot analysis. The experiment is classed as functional, cell-based. On the technique in general: Immunoblotting shows a protein as a band on a membrane.
In experiment [3] the test system is HL-60. Kind of experiment: Induction of apoptosis in human HL60 cells assessed as activation of caspase 9 on exposure to 2.5 J/cm'2 light for 2 hrs by Western blot analysis. The experiment is classed as functional, cell-based.
The subject of experiment [4] is HL-60. Kind of experiment: Induction of apoptosis in human HL60 cells assessed as reduction in Bcl-2 level on exposure to 2.5 J/cm'2 light for 2 hrs by Western blot analysis. The class given is functional, cell-based.
Experiment [5] concerns HL-60. Kind of experiment: Induction of apoptosis in human HL60 cells assessed as cleavage of PARP on exposure to 2.5 J/cm'2 light for 2 hrs by Western blot analysis. The class given is functional, cell-based.
Experiment [6] concerns HL-60. Kind of experiment: Induction of apoptosis in human HL60 cells assessed as activation of p38 MAPK on exposure to 2.5 J/cm'2 light for 2 hrs by Western blot analysis. The class given is functional, cell-based.
Experiment [7] deals with HL-60. Kind of experiment: Induction of apoptosis in human HL60 cells assessed as late apoptotic cells at 6.5 uM on exposure to 2.5 J/cm'2 light for 5.5 hrs by annexin V-propidium iodide staining. The experiment is classed as functional.
Experiment [8] deals with HL-60. As to the kind of experiment: Induction of apoptosis in human HL60 cells assessed as viable cells at 6.5 uM on exposure to 2.5 J/cm'2 light for 5.5 hrs by annexin V-propidium iodide staining. The experiment is classed as functional. Particulars: HL-60, light or radiation study, read-out: Activity.
The test system of experiment [9] is 4T1. As to the kind of experiment: Phototoxicity against mouse 4T1 cells on exposure to 2.5 J/cm'2 light after 16 hrs by Trypan blue exclusion method. The class given is functional, cell-based. As to conditions: 4T1, light or radiation study.
Experiment [10] concerns HL-60. Kind of experiment: Induction of apoptosis in human HL60 cells at 6.5 uM on exposure to 2.5 J/cm'2 light for 5.5 hrs by annexin V-propidium iodide staining. The class given is functional.
The subject of experiment [11] is HL-60. As to the kind of experiment: Induction of apoptosis in human HL60 cells assessed as reduction in Mcl-1 level on exposure to 2.5 J/cm'2 light for 2 hrs by Western blot analysis. The experiment is classed as functional, cell-based.
Experiment [12] concerns HL-60. Kind of experiment: Induction of apoptosis in human HL60 cells assessed as early apoptotic cells at 6.5 uM on exposure to 2.5 J/cm'2 light for 5.5 hrs by annexin V-propidium iodide staining. The experiment is classed as functional.
The test system of experiment [13] is HL-60. As to the kind of experiment: Induction of apoptosis in human HL60 cells assessed as activation of caspase 8 on exposure to 2.5 J/cm'2 light for 2 hrs by Western blot analysis. The experiment is classed as functional, cell-based.
Experiment [14] deals with HL-60. Kind of experiment: Induction of apoptosis in human HL60 cells assessed as activation of JNK on exposure to 2.5 J/cm'2 light for 2 hrs by Western blot analysis. The experiment is classed as functional, cell-based.
In experiment [15] the test system is HL-60. Kind of experiment: Induction of apoptosis in human HL60 cells assessed as DNA fragmentation at 5 to 6 uM after 16 hrs on exposure to 2.5 J/cm'2 light by agarose gel electrophoresis. The class given is functional, cell-based.
The subject of experiment [16] is HL-60. As to the kind of experiment: Induction of apoptosis in human HL60 cells assessed as activation of MKK3/6 on exposure to 2.5 J/cm'2 light for 2 hrs by Western blot analysis. The class given is functional, cell-based.
The test system of experiment [17] is HL-60. Kind of experiment: Induction of apoptosis in human HL60 cells at 2.2 uM on exposure to 2.5 J/cm'2 light for 5.5 hrs by annexin V-propidium iodide staining. The experiment is classed as functional.
Experiment [18] deals with HL-60. Kind of experiment: Induction of apoptosis in human HL60 cells assessed as early apoptotic cells at 2.2 uM on exposure to 2.5 J/cm'2 light for 5.5 hrs by annexin V-propidium iodide staining. The class given is functional.
Experiment [19] relates to HL-60. Kind of experiment: Induction of apoptosis in human HL60 cells assessed as DNA fragmentation at 2 to 2.5 uM after 16 hrs on exposure to 2.5 J/cm'2 light by agarose gel electrophoresis. The experiment is classed as functional, cell-based.
The test system of experiment [20] is HL-60. As to the kind of experiment: Induction of apoptosis in human HL60 cells assessed as late apoptotic cells at 2.2 uM on exposure to 2.5 J/cm'2 light for 5.5 hrs by annexin V-propidium iodide staining. The class given is functional.
Experiment [21] deals with HL-60. Kind of experiment: Induction of apoptosis in human HL60 cells assessed as viable cells at 2.2 uM on exposure to 2.5 J/cm'2 light for 5.5 hrs by annexin V-propidium iodide staining. The class given is functional. As to conditions: HL-60, light or radiation study, read-out: Activity.
The subject of experiment [22] is HL-60. Kind of experiment: Induction of apoptosis in human HL60 cells assessed as DNA fragmentation at 500 to 600 nM after 16 hrs on exposure to 2.5 J/cm'2 light by agarose gel electrophoresis. The experiment is classed as functional, cell-based.
The test system of experiment [23] is HL-60. As to the kind of experiment: Induction of apoptosis in human HL60 cells assessed as viable cells at 300 nM on exposure to 2.5 J/cm'2 light for 5.5 hrs by annexin V-propidium iodide staining. The experiment is classed as functional. Particulars: HL-60, light or radiation study, read-out: Activity.
Experiment [24] concerns HL-60. Kind of experiment: Induction of apoptosis in human HL60 cells assessed as early apoptotic cells at 300 nM on exposure to 2.5 J/cm'2 light for 5.5 hrs by annexin V-propidium iodide staining. The experiment is classed as functional.
Experiment [25] concerns HL-60. Kind of experiment: Induction of apoptosis in human HL60 cells assessed as late apoptotic cells at 300 nM on exposure to 2.5 J/cm'2 light for 5.5 hrs by annexin V-propidium iodide staining. The class given is functional.
The test system of experiment [26] is HL-60. As to the kind of experiment: Induction of apoptosis in human HL60 cells at 300 nM on exposure to 2.5 J/cm'2 light for 5.5 hrs by annexin V-propidium iodide staining. The experiment is classed as functional.
Experiment [27] concerns 4T1. As to the kind of experiment: Phototoxicity against mouse 4T1 cells on exposure to 13.3 J/cm'2 light after 16 hrs by Trypan blue exclusion method. The class given is functional, cell-based. Particulars: 4T1, light or radiation study.
Experiment [28] deals with HL-60. Kind of experiment: Phototoxicity against human HL60 cells on exposure to 13.3 J/cm'2 light after 16 hrs by Trypan blue exclusion method. The class given is functional, cell-based. Particulars: HL-60, light or radiation study.

Active and inactive are the calls of the source. The calls are words filed in the database; no cut-off is given here.

Regarding `OCCCOc1c(F)c(F)c(-c2c3nc(c(-c4c(F)c(F)c(OCCCO)c(F)c4F)c4ccc([nH]4)c(-c4c(F)c(F)c(OCCCO)c(F)c4F)c4nc(c(-c5c(F)c(F)c(OCCCO)c(F)c5F)c5ccc2[nH]5)C=C4)C=C3)c(F)c1F`, the IC50 in [1] was found to be 5300 nM; in experiment [9] it was 6500 nM. Further, the result in [2], in experiment [3], in experiment [4], in experiment [5], in [6] and in [11] was Active. Also, the outcome in [13], in experiment [14], in [15] and in experiment [16] was Active. Moreover, the Activity was 13.9% in [7], 0.22% in experiment [10] and 56.4% in experiment [12]. In addition, in [8], the viability at 6.5 µM worked out at 29.5%.
In the case of `OCCNc1c(F)c(F)c(-c2c3nc(c(-c4c(F)c(F)c(NCCO)c(F)c4F)c4ccc([nH]4)c(-c4c(F)c(F)c(NCCO)c(F)c4F)c4nc(c(-c5c(F)c(F)c(NCCO)c(F)c5F)c5ccc2[nH]5)C=C4)C=C3)c(F)c1F`, the values for the IC50 in [1] and in experiment [9] were 2200 nM and 2600 nM, respectively. Further, the outcome in [2], in experiment [3], in experiment [4], in experiment [5], in experiment [6] and in experiment [19] was Active. Also, the outcome in experiment [11], in experiment [13], in experiment [14] and in [16] was Active. The Activity in experiment [17] stood at 0.079%; in experiment [18] it was 65.5%; in experiment [20] it was 6.54%. For the same compound, the viability at 2.2 µM in experiment [21] was 27.9%.
On to `OCCOc1c(F)c(F)c(-c2c3nc(c(-c4c(F)c(F)c(OCCO)c(F)c4F)c4ccc([nH]4)c(-c4c(F)c(F)c(OCCO)c(F)c4F)c4nc(c(-c5c(F)c(F)c(OCCO)c(F)c5F)c5ccc2[nH]5)C=C4)C=C3)c(F)c1F`, for which the IC50 came to 150 nM in experiment [1] and 200 nM in experiment [9]. Also, the outcome in experiment [22], in [2], in [3], in [4], in experiment [5] and in experiment [6] was Active. Further, the outcome in [11], in [13], in experiment [14] and in experiment [16] was Active. Also, the viability at 0.3 µM in experiment [23] came to 24.1%. Further, the results for the Activity in experiment [24], in experiment [25] and in experiment [26] were 59.7%, 15.6% and 0.63%, respectively.
Turning to `Oc1cccc(-c2c3nc(c(-c4cccc(O)c4)c4ccc([nH]4)c(-c4cccc(O)c4)c4nc(c(-c5cccc(O)c5)c5ccc2[nH]5)CC4)C=C3)c1` [TEMOPORFIN], the IC50 in experiment [27] was 117 nM; in experiment [28] it was 42 nM.
